This passage reports TGI and GI50 results from PubChem BioAssay (NCI).

Where “and” joins values, the source holds several entries; their conditions need not be identical. Equal values may be shown once.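 96-well plates; 48 h exposure; 5 concentrations. Endpoints by linear interpolation between flanking doses. Not reached: highest tested concentration assigned. GI50 marks 50% less growth. At the TGI there is no net growth.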 Bounds are passed on as bounds.

Test systems include HCT-116 colon; TK-10 renal; HOP-92 NSCLC; SR leukemia; U251 CNS; MDA-MB-435; SK-MEL-28 melanoma; MDA-MB-231 breast; MDA-N.
Common to all, as to test: DTP human tumour cell line panel, 48 h

Consider `C[C@H]1[C@H](C)CC[C@]2(C(=O)OC3OC(CO)C(O)C(O)C3O)CC[C@]3(C)C(=CC[C@@H]4[C@@]5(C)C[C@H]6OC(=O)c7cc(O)c(O)c(O)c7-c7c(cc(O)c(O)c7O)C(=O)O[C@@H]6C(CO)(CO)[C@@H]5CC[C@]43C)[C@H]12` (stereo partly drawn), for which the TGI – broadly, the concentration giving total growth inhibition – was over 100 µM in the experiment on HCT-116 colon; over 100 µM in the experiment with TK-10 renal; over 100 µM in the experiment on HOP-92 NSCLC; over 96.3 µM with SR leukemia; 42.2 µM with U251 CNS; 36.2 µM with MDA-MB-435. In addition, the TGI with SK-MEL-28 melanoma is over 100 µM; in the experiment with MDA-MB-231 breast, 33 µM; in the experiment on MDA-N, 72.7 µM.
As to `Cc1cc(NS(=O)(=O)c2ccc(NC(NC(=O)C(C(F)(F)F)C(F)(F)F)(C(F)(F)F)C(F)(F)F)cc2)no1`, the concentration for total growth inhibition (TGI) in the experiment with HCT-116 colon, in the experiment with TK-10 renal, with HOP-92 NSCLC, in the experiment on SR leukemia, in the experiment on U251 CNS and in the experiment with MDA-MB-435 was over 100 µM each time. Further, the concentration for total growth inhibition (TGI) in the experiment with SK-MEL-28 melanoma, in the experiment on MDA-MB-231 breast and in the experiment on MDA-N was over 100 µM throughout.
As to `CN1CCN(C2=C(Cl)C3(OCCS3)C(F)(F)C2(F)F)CC1` (stereo not drawn), the TGI in the experiment with HCT-116 colon, in the experiment with TK-10 renal, in the experiment on HOP-92 NSCLC, in the experiment on SR leukemia, in the experiment with U251 CNS and in the experiment on MDA-MB-435 was over 100 µM in each case. Also, the TGI with MDA-MB-231 breast and in the experiment with MDA-N was over 100 µM in each case.
For `CCN(CC)CCO/N=C1\CC[C@H]2[C@@H]3CCc4cc(OC)ccc4[C@H]3CC[C@]12C`, the TGI with HCT-116 colon was found to be 2.92 µM; in the experiment with TK-10 renal, 15.9 µM; in the experiment with HOP-92 NSCLC, 7.25 µM; with SR leukemia, 4.31 µM; with U251 CNS, 11.6 µM; in the experiment on MDA-MB-435, 1.48 µM. Also, the TGI in the experiment with SK-MEL-28 melanoma was 1.28 µM; with MDA-MB-231 breast, 8.54 µM; in the experiment on MDA-N it was 3.66 µM.
With `CN(C)c1cccc2c1C(=O)C=CC21c2ccc(N(C)C)c3c(N(C)C)ccc(c23)C(c2ccccc2)C1c1ccccc1` (stereo not drawn), the TGI with HCT-116 colon came to 52.6 µM; in the experiment with TK-10 renal, 25.5 µM; with HOP-92 NSCLC, 28.6 µM; in the experiment on SR leukemia it was 55.1 µM; in the experiment with U251 CNS it was 25.8 µM; with MDA-MB-435, 30.2 µM. Moreover, the TGI was 37.5 µM in the experiment on SK-MEL-28 melanoma, 28.9 µM in the experiment on MDA-MB-231 breast and 37 µM in the experiment on MDA-N.
Consider `CCOC(=O)C1CCC(=O)N1C(=O)c1ccccc1Cl` (stereo not drawn), for which the TGI in the experiment with HCT-116 colon, in the experiment on TK-10 renal, with HOP-92 NSCLC, with SR leukemia, in the experiment on U251 CNS and in the experiment on MDA-MB-435 was over 100 µM each time. In addition, the TGI with SK-MEL-28 melanoma, in the experiment on MDA-MB-231 breast and in the experiment with MDA-N was over 100 µM in each case.
In the case of `C=CCN1C(=O)/C(=C/c2ccc(C)cc2)N=C1SC1OC(COC(C)=O)C(OC(C)=O)C(OC(C)=O)C1OC(C)=O` (stereo not drawn), the TGI in the experiment with HCT-116 colon is over 100 µM; in the experiment with TK-10 renal, over 100 µM; in the experiment on HOP-92 NSCLC, > 100 µM and 53.4 µM; with SR leukemia it was > 76.5 µM and 44.3 µM; in the experiment on U251 CNS, over 100 µM; in the experiment with MDA-MB-435 it was > 100 µM and 21.4 µM. Moreover, the TGI in the experiment on SK-MEL-28 melanoma, with MDA-MB-231 breast and in the experiment with MDA-N was over 100 µM each time. For the same compound, the GI50 – broadly, the concentration that inhibits growth by half – is > 100 µM and 11.6 µM with HOP-92 NSCLC; 26.5 µM and 10.8 µM in the experiment on SR leukemia; > 70.6 µM and 7.32 µM in the experiment with MDA-MB-435.
For the compound `COC(=O)C1(O)C(c2ccccc2)=NC2(C)CCCC21` (stereo not drawn), the TGI with HCT-116 colon, with TK-10 renal, with HOP-92 NSCLC, with SR leukemia, with U251 CNS and in the experiment with MDA-MB-435 was over 100 µM each time. Also, the TGI with SK-MEL-28 melanoma, in the experiment with MDA-MB-231 breast and in the experiment with MDA-N was over 100 µM in each case.
As for `Cc1c(-c2ccccc2)[nH]n(C2=NCCN2)c1=O`, the TGI in the experiment on HCT-116 colon, in the experiment on TK-10 renal, in the experiment on HOP-92 NSCLC, in the experiment on SR leukemia, in the experiment with U251 CNS and in the experiment with MDA-MB-435 was over 100 µM each time. Moreover, the TGI in the experiment on MDA-MB-231 breast and in the experiment with MDA-N was over 100 µM each time.
Take `CCNc1ncnc2sc(SCc3ccccc3)nc12`: the TGI in the experiment on HCT-116 colon was over 100 µM; in the experiment on TK-10 renal, over 100 µM; in the experiment on HOP-92 NSCLC, 81 µM; in the experiment with SR leukemia, over 100 µM; in the experiment on U251 CNS it was over 100 µM; in the experiment on MDA-MB-435 it was over 100 µM. The TGI with SK-MEL-28 melanoma, with MDA-MB-231 breast and with MDA-N was over 100 µM each time.
On to `COc1nc2c(N3CCCC3)nc(N3CCNCC3)nc2nc1NCc1ccccc1`, for which the TGI in the experiment on HCT-116 colon came to 2.63 µM; with TK-10 renal, 5.78 µM; in the experiment with HOP-92 NSCLC it was 5.2 µM; in the experiment with SR leukemia it was 3.37 µM; in the experiment with U251 CNS, 3.5 µM; with MDA-MB-435, 2.95 µM. Further, the concentration for total growth inhibition (TGI) with SK-MEL-28 melanoma worked out at 3.92 µM; in the experiment with MDA-MB-231 breast, 3.72 µM; with MDA-N it was 2.45 µM.
`COc1ccc(N2C(=O)C3c4[nH]c5ccccc5c4C4CCCCCCCCCC4C3C2=O)cc1` (stereo not drawn): the TGI with HCT-116 colon, in the experiment with TK-10 renal, in the experiment on SR leukemia, in the experiment on U251 CNS, in the experiment with MDA-MB-435 and with SK-MEL-28 melanoma was over 10 µM throughout. Moreover, the TGI with MDA-MB-231 breast and in the experiment on MDA-N was over 10 µM throughout.
As for `C[C@H]1OC(=O)[C@@H]2N=NN(Cc3ccccc3)[C@H]12`, the concentration for total growth inhibition (TGI) with HCT-116 colon, in the experiment with TK-10 renal, with HOP-92 NSCLC, with SR leukemia, in the experiment on U251 CNS and with MDA-MB-435 was over 100 µM throughout. For the same compound, the TGI in the experiment with SK-MEL-28 melanoma, with MDA-MB-231 breast and with MDA-N was over 100 µM in each case.
As for `O=C(CC(=O)Nc1ccccc1)NNC(c1cc(N=Nc2ccc(Br)cc2)ccc1O)P(O)O` (stereo not drawn), the TGI with HCT-116 colon was 5.64 µM; with TK-10 renal, over 10 µM; in the experiment with HOP-92 NSCLC, over 10 µM; with SR leukemia, over 10 µM; in the experiment on U251 CNS, over 10 µM; in the experiment with MDA-MB-435, over 10 µM. For the same compound, the TGI in the experiment on SK-MEL-28 melanoma, in the experiment with MDA-MB-231 breast and in the experiment on MDA-N was over 10 µM throughout.
`CC#CC(O)(C(=O)OC1CC(C)N(C)C(C)(C)C1)C1CCCC1` (stereo not drawn): the TGI in the experiment with HCT-116 colon, with TK-10 renal, in the experiment on SR leukemia, with U251 CNS, in the experiment with MDA-MB-435 and with SK-MEL-28 melanoma was over 100 µM throughout. Also, the TGI with MDA-MB-231 breast and in the experiment with MDA-N was over 100 µM each time.
With `O=C(O)CN(CC(=O)O)C(C(=O)O)c1ccccc1` (stereo not drawn), the TGI in the experiment on HCT-116 colon, in the experiment with TK-10 renal, in the experiment on HOP-92 NSCLC, in the experiment on SR leukemia, in the experiment on U251 CNS and in the experiment with MDA-MB-435 was over 100 µM throughout. The TGI in the experiment with SK-MEL-28 melanoma, in the experiment with MDA-MB-231 breast and in the experiment on MDA-N was over 100 µM in each case.
As to `COc1cc2[nH]c(-c3ccccc3)cc(=O)c2c(OC)c1OC`, the TGI in the experiment with HCT-116 colon, in the experiment on TK-10 renal, in the experiment on SR leukemia, in the experiment on U251 CNS, in the experiment with MDA-MB-435 and in the experiment with SK-MEL-28 melanoma was over 100 µM throughout. For the same compound, the TGI with MDA-MB-231 breast and with MDA-N was over 100 µM each time.
In the case of `Cc1cc(C)nc(NS(=O)(=O)c2ccc(NC(=O)c3cccc4c(NNc5ccc(S(=O)(=O)N=C(N)N)cc5)c5ccccc5nc34)cc2)n1`, the TGI in the experiment on HCT-116 colon, with TK-10 renal, in the experiment with HOP-92 NSCLC, with SR leukemia, in the experiment with U251 CNS and in the experiment on MDA-MB-435 was over 50 µM in each case. The TGI in the experiment with MDA-MB-231 breast and with MDA-N was over 50 µM throughout.
Consider `CC1(C)OC2COC3([C@@H]4OC(C)(C)O[C@@H]4CO)OC(C)(C)OC3C2O1` (stereo partly drawn), for which the total growth inhibition concentration (TGI) in the experiment with HCT-116 colon, in the experiment on HOP-92 NSCLC, in the experiment on SR leukemia, with U251 CNS, in the experiment on MDA-MB-435 and with SK-MEL-28 melanoma was over 100 µM each time. The TGI in the experiment with MDA-MB-231 breast and in the experiment with MDA-N was over 100 µM each time.
For `COC(=O)N1N=C(c2ccccc2)C1c1ccccc1` (stereo not drawn), the TGI in the experiment with HCT-116 colon, with TK-10 renal, in the experiment with SR leukemia, in the experiment on U251 CNS, in the experiment with MDA-MB-435 and with SK-MEL-28 melanoma was over 100 µM each time. The TGI in the experiment with MDA-MB-231 breast and with MDA-N was over 100 µM in each case.
As to `COc1ccc([C@H]2C=[N+]([O-])O[C@H](OC3CCCC3)[C@@H]2OC(C)=O)cc1OC`, the concentration for total growth inhibition (TGI) is 68.2 µM in the experiment on TK-10 renal; 32.9 µM in the experiment on HOP-92 NSCLC; over 100 µM in the experiment on SR leukemia; over 100 µM in the experiment on U251 CNS; 67.5 µM in the experiment on MDA-MB-435; 44.2 µM in the experiment on SK-MEL-28 melanoma. Besides, the TGI stood at 78.2 µM in the experiment on MDA-MB-231 breast and 69.2 µM in the experiment with MDA-N.
